# From patent US6930123B2, “sPLA2 inhibitors” (Eli Lilly and Company, priority 2000, dated 2005)
# Columns and labels:
# [1] = molecular target: T1, recombinant human secreted phospholipase A2 (Homo sapiens, UniProt P14555); experiment: chromogenic assay for inhibitors of recombinant human secreted phospholipase A2; assay type: biochemical; conditions: diheptanoyl thio-PC substrate, pH 7.5, 40° C. for 30 minutes, absorbance at 405 nanometers, titrated in triplicate
# T1 sequence (P14555 21-144): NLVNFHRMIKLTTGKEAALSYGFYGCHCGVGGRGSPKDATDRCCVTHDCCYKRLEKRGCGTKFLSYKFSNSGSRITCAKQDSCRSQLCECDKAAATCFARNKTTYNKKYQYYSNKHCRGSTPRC
# Source text: The following chromogenic assay procedure was used to identify and evaluate inhibitors of recombinant human secreted phospholipase A2. The assay described herein has been adapted for high volume screening using 96 well microtiter plates. A general description of this assay method is found in the article, “Analysis of Human Synovial Fluid Phospholipase A2 on Short Chain Phosphatidylcholine-Mixed Micelles: Development of a Spectrophotometric Assay Suitable for a Microtiterplate Reader”, by Laure J. Reynolds, Lori L. Hughes, and Edward A Dennis, Analytical Biochemistry, 204, pp. 190-197, 1992 (the disclosure of which is incorporated herein by reference):
# A measured volume of racemic dipheptanoyl thio PC supplied in chloroform at a concentration of 100 mg/ml is taken to dryness and redissolved in 10 millimolar TRITON X-100™ nonionic detergent aqueous solution. Reaction Buffer is added to the solution, then DTNB to give the Reaction Mixture.
# The reaction mixture thus obtained contains 1 mM diheptanoly thio-PC substrate, 0.29 mm Triton X-100™ detergent, and 0.12 mm DTMB in a buffered aqueous solution at pH 7.5.
# • 1. Add 0.2 ml reaction mixture to all wells; • 2. Add 10 ul test compound (or solvent blank) to appropriate wells, mix 20 seconds; • 3. Add 50 nanograms of sPLA2 (10 microliters) to appropriate wells; • 4. Incubate plate at 40° C. for 30 minutes; • 5. Read absorbance of wells at 405 nanometers with an automatic plate reader.
# Tests were done in triplicate. Typically, compounds were tested at a final concentration of 5 ug/ml. […] Lack of color development at 405 nanometers evidenced inhibition. Compounds initially found to be active were re-assayed to confirm their activity and, if sufficiently active, IC50 values were determined. […] In all cases, % inhibition measured at 405 nanometers generated by enzyme reactions containing inhibitors relative to the uninhibited control reactions was determined. […] IC50 values were determined by plotting log concentration versus inhibition values in the range from 10-90% inhibition.
compound,measurement,setting,value
"CCc1c(C(=O)C(N)=O)c2c(OCC(=O)OCc3ccccc3)c3ccccc3cc2n1Cc1ccccc1 [Example 2, 2-[[3-(2-amino-1,2-dioxoethyl)-1-benzyl-2-ethyl-1H-benz[f]indol-4-yl]oxy]acetic acid benzyl ester]",IC50,[1],14.3 µM
"CCc1c(C(=O)C(N)=O)c2c(OCC(=O)O)c3ccccc3cc2n1Cc1ccccc1 [Example 3, 2-[[3-(2-amino-1,2-dioxoethyl)-1-benzyl-2-ethyl-1H-benz[f]indol-4-yl]oxy]acetic acid]",IC50,[1],1.06 µM
same,melting point,,243 to 253 °C (dec.)
"CCOC(=O)COc1c2ccccc2cc2c1c(C(=O)C(N)=O)c(CC)n2Cc1ccccc1 [Example 1, 2-[[3-(2-amino-1,2-dioxoethyl)-1-benzyl-2-ethyl-1H-benz[f]indol-4-yl]oxy]acetic acid ethyl ester]",IC50,[1],1.3 µM
